Results as given in patent US8648097B2, “Pyridylaminoacetic acid compound” (Ube Industries, Ltd., priority 2008, dated 2014).
Where a name gives a salt, the structure may show the parent alone. Read-outs that look alike come from different tables or passages of the source.

Key:
[1] = test system: isolated guinea pig trachea; assay: Isolated guinea pig trachea relaxation test; settings: 50% relaxation of 0.1 μM carbachol-induced contraction
Protocol: The tracheas were isolated from guinea pigs (Hartley, male, age 7 to 9 weeks, supplier: Nippon SLC) followed by cutting as rings containing cartilage. Trachea specimens were prepared by cutting the side opposite from the smooth muscle from the rings. The trachea specimens were suspended in Krebs solution containing 3 μM indomethacin while applying a load of 0.5 g, and changes in tension were measured through an FD pickup (TB-611T, Nippon Kohden). The trachea specimens were then warmed to 37° C. and perfused with a mixed gas consisting of 95% oxygen and 5% carbon dioxide. Next, after causing the trachea specimen to contract by adding 0.1 μM carbachol, a test compound dissolved in dimethylsulfoxide was cumulatively added starting at a low concentration to cause the trachea specimen to relax.

EP2 [2] = target: T1, EP2 (Homo sapiens, UniProt P43116); assay: Measurement of EP2 agonist activity (cAMP in HEK293 cells); type: cell-based; set-up: host or cells: HEK293 cells; settings: amount of cAMP in HEK293 cells (ES-562-C, Euroscreen), 30 minutes
Protocol: Measurement of EP2 agonist activity was carried out in compliance with the method of Wilson et al. (European Journal of Pharmacology, 501, 49 (2004)). HEK293 cells (ES-562-C, Euroscreen) were cultured in MEM medium containing 10% FBS and seeded at 2×10^4 cells per well of a 96-well plate. On the following day, the medium was replaced with serum-free MEM medium containing 3-isobutyl-1-methylxanthine (final concentration: 500 μM) and after culturing for 30 minutes, a test compound dissolved in dimethylsulfoxide was added followed by allowing to stand undisturbed in a carbon dioxide incubator. After 30 minutes, the amount of cAMP in the cells was measured with a cAMP Biotrak EIA System kit (GE Healthcare Sciences).

EP2 [3] = target: T1, EP2; assay: Measurement of EP2 receptor binding action; set-up: expressed in transfected cells; host or cells: HEK293 cells (membrane fraction)
Protocol: Measurement of EP2 receptor binding action was carried out in compliance with the method of Abramovitz et al. (Biochimica et Biophysica Acta, 1483, 285 (2000)). […] The membrane fraction was recovered on glass fiber filter paper (GF/B, Whatmann) using a cell harvester (M30R, Brandel), and after washing with buffer solution (10 mM MES-KOH (pH 6.0), 10 mM MgCl2), radioactivity was measured with a liquid scintillation analyzer (2000CA, Packard). […] The dissociation constant (Kd) was calculated by Scatchard analysis. Furthermore, a Compound A shown in the table is a sodium salt of {3-[(4-tert-butylbenzyl)(pyridin-3-ylsulfonyl)aminomethyl]-phenoxy}acetic acid (CP-533,536), which is the compound of Example 14e of WO 99/19300A, and is a control compound having EP2 receptor binding action.

[4] = read-out: Ki Value of EP2 Receptor Binding Action

T1 sequence (P43116 whole entry): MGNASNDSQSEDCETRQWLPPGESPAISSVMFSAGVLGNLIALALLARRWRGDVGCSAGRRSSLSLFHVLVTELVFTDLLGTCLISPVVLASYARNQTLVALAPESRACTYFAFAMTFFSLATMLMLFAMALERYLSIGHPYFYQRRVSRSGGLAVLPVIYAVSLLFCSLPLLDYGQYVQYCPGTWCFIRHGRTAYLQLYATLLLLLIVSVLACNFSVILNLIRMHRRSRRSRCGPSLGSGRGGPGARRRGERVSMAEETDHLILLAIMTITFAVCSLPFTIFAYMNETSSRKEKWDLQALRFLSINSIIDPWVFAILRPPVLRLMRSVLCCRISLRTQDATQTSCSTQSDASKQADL

SMILES | EC50 (EP2 [2]) [nM] | Ki (EP2 [3]; [4]) [nM] | further results
CC(C)(C)c1ccc(CN(Cc2cccc(OCC(=O)O)c2)S(=O)(=O)c2cccnc2)cc1 [Compound A, {3-[(4-tert-butylbenzyl)(pyridin-3-ylsulfonyl)aminomethyl]-phenoxy}acetic acid, reference compound] |  |  | IC50 ([1]; Cavia porcellus): 86 nM
O=C(O)CNc1cccc(CN(Cc2ccc(-c3nccs3)cc2)S(=O)(=O)c2cccnc2)n1 [Example 2, (6-{(Pyridin-3-ylsulfonyl)[4-(thiazol-2-yl)benzyl]aminomethyl}pyridin-2-ylamino)-acetic acid] |  |  | IC50 ([1]; Cavia porcellus): 5.7 nM
O=C(O)CNc1cccc(CN(Cc2ccc(-c3nccs3)cc2)S(=O)(=O)c2ccccn2)n1 [Example 3, (6-{(Pyridin-2-ylsulfonyl)[4-(thiazol-2-yl)benzyl]aminomethyl}pyridin-2-ylamino)-acetic acid] | 0.45 | 1.9 | 
O=C(O)CNc1cccc(CN(Cc2ccc(-c3nccs3)cc2)S(=O)(=O)c2ccc(F)cc2)n1 [Example 4, (6-{(4-Fluorobenzenesulfonyl)[4-(thiazol-2-yl)benzyl]aminomethyl}pyridin-2-ylamino)acetic acid] | 0.29 |  | IC50 [1]: 4.5 nM; Ki (EP2 [3]; [3H]prostaglandin E2 10 nM, membrane fraction of HEK293 cells expressing human EP2 receptor, read-out: Ki Value of EP2 Receptor Binding Action): 2.8 nM
O=C(O)CNc1cccc(CN(Cc2ccc(C3=NCCS3)cc2)S(=O)(=O)c2ccc(F)cc2)n1 [Example 5, (6-{[4-(4,5-Dihydrothiazol-2-yl)benzyl](4-fluorobenzenesulfonyl)aminomethyl}-pyridin-2-ylamino)acetic acid] | 1.8 | 7 | 
O=C(O)CNc1cccc(CN(Cc2ccc(-c3ccccc3)cc2)S(=O)(=O)c2cccnc2)n1 [Example 6, {6-[(Biphenyl-4-ylmethyl)(pyridin-3-ylsulfonyl)aminomethyl]pyridin-2-ylamino}acetic acid hydrochloride] | 2 |  | Ki (EP2 [3]): 3.8 nM
O=C(O)CNc1cccc(CN(Cc2ccc(-n3cccn3)cc2)S(=O)(=O)c2cccnc2)n1 [Example 7, (6-{[4-(Pyrazol-1-yl)benzyl](pyridin-3-ylsulfonyl)aminomethyl}pyridin-2-ylamino)-acetic acid hydrochloride] | 2.8 |  | 
O=C(O)CNc1cccc(CN(Cc2cc3ccccc3o2)S(=O)(=O)c2cccnc2)n1 [Example 8, {6-[(Benzofuran-2-ylmethyl)(pyridin-3-ylsulfonyl)aminomethyl]pyridin-2-ylamino}-acetic acid hydrochloride] | 5.6 |  | 
O=C(O)CNc1cccc(CN(Cc2ccc(-c3ccc(F)cc3)cc2)S(=O)(=O)c2cccnc2)n1 [Example 9, {6-[(4′-Fluorobiphenyl-4-ylmethyl)(pyridin-3-ylsulfonyl)aminomethyl]pyridin-2-ylamino}acetic acid hydrochloride] |  | 4.4 | 
O=C(O)CNc1cccc(CN(Cc2ccc(-c3nccs3)cc2)S(=O)(=O)c2cccnc2)n1 [Example 11, (6-{(Pyridin-3-ylsulfonyl) [4-(thiazol-2-yl)benzyl]aminomethyl}pyridin-2-ylamino)-acetic acid trifluoroacetate] | 0.42 | 3.8 | 
O=C(O)CNc1cccc(CN(Cc2cc3ccc(Cl)cc3s2)S(=O)(=O)c2cccnc2)n1 [Example 12, {6-[(6-Chlorobenzo[b]thiophen-2-ylmethyl)(pyridin-3-ylsulfonyl)aminomethyl]pyridin-2-ylamino}acetic acid hydrochloride] | 0.49 | 1.1 | 
O=C(O)CNc1cccc(CN(Cc2cc3ccccc3s2)S(=O)(=O)c2cccnc2)n1 [Example 13, {6-[(Benzo[b]thiophen-2-ylmethyl)(pyridin-3-ylsulfonyl)aminomethyl]pyridin-2-ylamino}acetic acid hydrochloride] | 3.4 | 13 | 
COc1ccc2cc(CN(Cc3cccc(NCC(=O)O)n3)S(=O)(=O)c3cccnc3)sc2c1 [Example 15, {6-[(6-Methoxybenzo[b]thiophen-2-ylmethyl)(pyridin-3-ylsulfonyl)aminomethyl]-pyridin-2-ylamino}acetic acid hydrochloride] | 0.96 | 9.4 | IC50 ([1]; Cavia porcellus): 2.6 nM
O=C(O)CNc1cccc(CN(Cc2ccc(-c3cscn3)cc2)S(=O)(=O)c2ccccn2)n1 [Example 16, (6-{(Pyridin-2-ylsulfonyl)[4-(thiazol-4-yl)benzyl]aminomethyl}pyridin-2-ylamino)-acetic acid] | 0.62 | 3.1 | IC50 ([1]; Cavia porcellus): 2.6 nM
O=C(O)CNc1cccc(CN(Cc2ccc(-c3ccccc3)cc2)S(=O)(=O)c2ccccn2)n1 [Example 17, {6-[(Biphenyl-4-ylmethyl)(pyridin-2-ylsulfonyl)aminomethyl]pyridin-2-ylamino}acetic acid hydrochloride] | 1.8 | 1.5 | IC50 ([1]; Cavia porcellus): 2.6 nM
O=C(O)CNc1cccc(CN(Cc2ccc(-c3ncccn3)cc2)S(=O)(=O)c2ccccn2)n1 [Example 18, (6-{(Pyridin-2-ylsulfonyl)[4-(pyrimidin-2-yl)benzyl]aminomethyl}pyridin-2-ylamino)-acetic acid hydrochloride] | 5 | 9.2 | 
O=C(O)CNc1cccc(CN(Cc2ccc(-c3ccccn3)cc2)S(=O)(=O)c2cccnc2)n1 [Example 19, (6-{[4-(Pyridin-2-yl)benzyl](pyridin-3-ylsulfonyl)aminomethyl}pyridin-2-ylamino)-acetic acid] | 2 |  | 
O=C(O)CNc1cccc(CN(Cc2ccc(-n3cccn3)cc2)S(=O)(=O)c2ccccn2)n1 [Example 21, (6-{[4-(Pyrazol-1-yl)benzyl](pyridin-2-ylsulfonyl)aminomethyl}pyridin-2-ylamino)-acetic acid] | 1.1 |  | 
O=C(O)CNc1cccc(CN(Cc2ccc(-c3nc(C(F)(F)F)cs3)cc2)S(=O)(=O)c2ccccn2)n1 [Example 25, (6-{(Pyridin-2-ylsulfonyl)[4-(4-trifluoromethylthiazol-2-yl)benzyl]aminomethyl}-pyridin-2-ylamino)acetic acid] | 7.9 |  | 
O=C(O)CNc1cccc(CN(Cc2ccc(-n3cccn3)cc2)S(=O)(=O)c2ccc(F)cc2)n1 [Example 26, (6-{(4-Fluorobenzenesulfonyl)[4-(pyrazol-1-yl)benzyl]aminomethyl}pyridin-2-ylamino)acetic acid] | 0.78 |  | 
